Experimental data reported in PubChem BioAssay AID2060353 (Molecular Pharmacology Branch, DTP, NCI, 2025).

Test system: 521955-158-R2-J5-PDC spheroids with stroma, growth inhibition
Assay: Anticancer human tumor 521955-158-R2-J5-PDC patient-derived pancreatic carcinoma cell line growth inhibition [TAK]
Settings: for IC50: curve of first compound; for viability, T/C: stronger effect = lower value
Text: Combinatorial screen of targeted agents with TAK-243 and ipatasertib in multi-cell type tumor spheroids
A high-throughput screen of multi-cell type tumor spheroids was designed to identify active combinations of targeted small molecules and TAK-243 or ipatasertib. Complex spheroids include a stromal component modeled by human endothelial cells (HUVEC) and fibroblasts modeled by human mesenchymal stem cells (MSCs). The concentration ranges selected for each drug and investigational agent were based upon clinically achievable concentrations if the clinical Cmax of the agent was known.
Compounds. The drugs and investigational agents: TAK-243 (785004), ipatasertib (767898), everolimus (733504), selumetinib (741078), bortezomib (756655), trametinib (758246), ixazomib (758254), vemurafenib (761431), dabrafenib (764134), sapanisertib (764658), alpelisib (765974), and copanlisib (816437), were obtained from the National Cancer Institute (NCI) Developmental Therapeutics Program Chemical Repository. The FDA-approved anticancer drug set is available from the NCI Developmental Therapeutics Program. […] The stock solutions were prepared in dimethyl sulfoxide (DMSO, Sigma-Aldrich, St. Louis, MO, cat. D2650) at 800-fold the tested concentration and stored at -70 degrees C prior to their use. All drugs and investigational agents were tested over a range starting from a high concentration at or near the clinical Cmax and decreasing in half-log increments. If the clinical Cmax for an agent had not been determined, the highest concentration tested was 10 microM.
NCI60 Cell Culture. NCI60 cell lines were obtained from the NCI Developmental Therapeutics Program Tumor Repository. For each lot of cells, the Repository performed Applied Biosystems AmpFLSTR Identifiler testing with PCR amplification to confirm consistency with the published Identifier STR profile for each cell line. Cells were kept in continuous culture for no more than 20 passages. The optimal seeding densities for each of the cell lines at each time point assessed were determined prior to performing the concentration response studies. Briefly, the NCI60 human tumor lines were grown as monolayers in RPMI 1640 medium supplemented with 10% FBS and 2 mmol/L L-glutamine.
An additional 2 lines were from the NCI60 cell line panel including melanomas, MALME-3M and SK-MEL-2. Pooled donor human umbilical vein endothelial cells (HUVEC, Lonza, cat. CC-2519) and human mesenchymal stem cells (hMSC, Lonza, cat. PT-2501) were purchased from Lonza (Walkersville, MD).
PDMR cell lines were grown in complete medium (DC medium): Dulbecco's modified Eagle's medium (DMEM)/F12 supplemented with 5% fetal bovine serum (FBS), 2 mM L-glutamine, 100 U/mL penicillin and 100 µg/ml streptomycin, 0.4 µg/ml hydrocortisone, 10 ng/ml epidermal growth factor (EGF) recombinant human protein, 24 µg/mL adenine, and 0.1 mg/mL primocin. During culture from frozen stock vials, PDMR cells were cultured in the same medium containing 10 µM Y-27632 (see Table 3). The PDCs were cultured in complete DMEM/F12 media without 10 microM Y-27632 dihydrochloride for at least two passages prior to the screen. The pooled donor HUVEC and hMSC were cultured in endothelial cell growth medium 2 (PromoCell, Heidelberg, Germany, cat. C-22011) and mesenchymal stem cell growth medium 2 (PromoCell, cat. C-28009), respectively. For all experiments, HUVEC and hMSC were used at passages </=5.
For the pre-screen, cell seeding densities were determined from a titration spanning the range from 5,000 to 313 cells per well. The mct-spheroids including 60% malignant cells, 25% HUVEC and 15% MSC dispensed as a mixture into U-bottom Ultra-Low Attachment 384-well plates (Corning, NY)
High-throughput Drug Combination Screening.
Prior to their inoculation into 384-well plates, malignant cells, HUVEC, and hMSC were removed from T flasks using TrypLE express (Thermo Fisher Scientific, cat. 12605036) and harvested by centrifugation for 5 min at 233 x g. […]

[1] = second compound 0.3 µM, first compound 0.0316 µM
[2] = second compound 0.3 µM, first compound 0.1 µM
[3] = second compound 0.949 µM, first compound 0.0316 µM
[4] = second compound 0.949 µM, first compound 0.1 µM
[5] = second compound 3 µM, first compound 0.0316 µM
[6] = second compound 3 µM, first compound 0.1 µM
[7] = second compound 9.49 µM, first compound 0.0316 µM
[8] = second compound 9.49 µM, first compound 0.1 µM
[9] = second compound 30 µM, first compound 0.0316 µM
[10] = second compound 30 µM, first compound 0.1 µM
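Further: spheroids exposed to drugs for seven days before readout.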
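Wherever viability, T/C is given: 100% = DMSO vehicle control viability.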

CC(C)(C)c1nc(-c2cccc(NS(=O)(=O)c3c(F)cccc3F)c2F)c(-c2ccnc(N)n2)s1 + CC(C)NCC(C(=O)N1CCN(c2ncnc3c2C(C)CC3O)CC1)c1ccc(Cl)cc1
IC50 (second compound 0.3 µM): > 10000 nM | IC50 (second compound 0.949 µM): 9730 nM | IC50 (second compound 3 µM): 6270 nM | IC50 (second compound 9.49 µM): 4960 nM | IC50 (second compound 30 µM): 1070 nM | viability, T/C [1]: 115% | viability, T/C [2]: 135% | viability, T/C (second compound 0.3 µM, first compound 0.316 µM): 135% | viability, T/C (second compound 0.3 µM, first compound 1 µM): 134% | viability, T/C (second compound 0.3 µM, first compound 3.16 µM): 96.8% | viability, T/C (second compound 0.3 µM, first compound 10 µM): 60.3% | viability, T/C [3]: 116% | viability, T/C [4]: 117% | viability, T/C (second compound 0.949 µM, first compound 0.316 µM): 109% | viability, T/C (second compound 0.949 µM, first compound 1 µM): 100% | viability, T/C (second compound 0.949 µM, first compound 3.16 µM): 79.5% | viability, T/C (second compound 0.949 µM, first compound 10 µM): 49.1% | viability, T/C [5]: 89.8% | viability, T/C [6]: 93.8% | viability, T/C (second compound 3 µM, first compound 0.316 µM): 72.2% | viability, T/C (second compound 3 µM, first compound 1 µM): 92.1% | viability, T/C (second compound 3 µM, first compound 3.16 µM): 75.4% | viability, T/C (second compound 3 µM, first compound 10 µM): 32.8% | viability, T/C [7]: 92.3% | viability, T/C [8]: 83.9% | viability, T/C (second compound 9.49 µM, first compound 0.316 µM): 65.1% | viability, T/C (second compound 9.49 µM, first compound 1 µM): 66.2% | viability, T/C (second compound 9.49 µM, first compound 3.16 µM): 71.4% | viability, T/C (second compound 9.49 µM, first compound 10 µM): 33.4% | viability, T/C [9]: 59.7% | viability, T/C [10]: 56.7% | viability, T/C (second compound 30 µM, first compound 0.316 µM): 50.9% | viability, T/C (second compound 30 µM, first compound 1 µM): 51.2% | viability, T/C (second compound 30 µM, first compound 3.16 µM): 44.8% | viability, T/C (second compound 30 µM, first compound 10 µM): 28.7%

CC(C)CC(NC(=O)CNC(=O)c1cc(Cl)ccc1Cl)B1OC(=O)CC(CC(=O)O)(C(=O)O)O1 (stereo not given) + CC(C)NCC(C(=O)N1CCN(c2ncnc3c2C(C)CC3O)CC1)c1ccc(Cl)cc1
IC50 (second compound 0.3 µM): 39 nM | IC50 (second compound 0.949 µM): 30 nM | IC50 (second compound 3 µM): 26.8 nM | IC50 (second compound 9.49 µM): 25.7 nM | IC50 (second compound 30 µM): 15.2 nM | viability, T/C (second compound 0.3 µM, first compound 0.000316 µM): 129% | viability, T/C (second compound 0.3 µM, first compound 0.001 µM): 114% | viability, T/C (second compound 0.3 µM, first compound 0.00316 µM): 104% | viability, T/C (second compound 0.3 µM, first compound 0.01 µM): 116% | viability, T/C [1]: 59% | viability, T/C [2]: 8.82% | viability, T/C (second compound 0.949 µM, first compound 0.000316 µM): 85.2% | viability, T/C (second compound 0.949 µM, first compound 0.001 µM): 98.6% | viability, T/C (second compound 0.949 µM, first compound 0.00316 µM): 87.6% | viability, T/C (second compound 0.949 µM, first compound 0.01 µM): 94.2% | viability, T/C [3]: 48.1% | viability, T/C [4]: 6.65% | viability, T/C (second compound 3 µM, first compound 0.000316 µM): 77.8% | viability, T/C (second compound 3 µM, first compound 0.001 µM): 78% | viability, T/C (second compound 3 µM, first compound 0.00316 µM): 87% | viability, T/C (second compound 3 µM, first compound 0.01 µM): 89.6% | viability, T/C [5]: 44.4% | viability, T/C [6]: 6.08% | viability, T/C (second compound 9.49 µM, first compound 0.000316 µM): 123% | viability, T/C (second compound 9.49 µM, first compound 0.001 µM): 103% | viability, T/C (second compound 9.49 µM, first compound 0.00316 µM): 115% | viability, T/C (second compound 9.49 µM, first compound 0.01 µM): 122% | viability, T/C [7]: 35.7% | viability, T/C [8]: 4.11% | viability, T/C (second compound 30 µM, first compound 0.000316 µM): 69.3% | viability, T/C (second compound 30 µM, first compound 0.001 µM): 69.1% | viability, T/C (second compound 30 µM, first compound 0.00316 µM): 72.4% | viability, T/C (second compound 30 µM, first compound 0.01 µM): 66.4% | viability, T/C [9]: 21.3% | viability, T/C [10]: 2.31%
